Measured values taken from patent US6479435B1, “Diaryl ethers and processes for their preparation and herbicidal and desiccant compositions containing them” (ISK Americas Incorporated, priority 1997, dated 2002).

Tests used:
Format in all cases: in vivo
[1] = tested on: field corn (Zea mays L., var. Dekalb 535, CORN); test: Post-emerge greenhouse test, crop damage rating; conditions: 14 days after application
Outline: (§1)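 Compounds in acetone with 0.25% v/v non-ionic surfactant were track-sprayed at 187 l/ha over plants at the 2-3 leaf stage, at 63 to 1000 g ai/ha. Pots were bottom-watered. Injury was scored visually 14 days later on a 0-100 scale, where 0 is no damage and 100 is complete plant death.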

[2] = tested on: upland rice (Oryza sp., var.Tebonnet, RICE); test: Post-emerge greenhouse test, crop damage rating; conditions: 14 days after application
Outline: as §1

[3] = tested on: field corn (Zea mays L., var. Dekalb 535, CORN); test: Pre-emerge greenhouse test, crop damage rating; conditions: 14 days after application, rating scale 0-100
Outline: (§2)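 Seeds sown in sandy loam mix one day before track-sprayer application of compounds in acetone at 125–1000 g ai/ha (187 l/ha), then surface-watered to incorporate and bottom-watered. Visual rating 14 days after application on a 0–100 scale (0 = no damage, 100 = all plants dead).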

[4] = tested on: upland rice (Oryza sp., var.Tebonnet, RICE); test: Pre-emerge greenhouse test, crop damage rating; conditions: 14 days after application, rating scale 0-100
Outline: as §2

[5] = tested on: soybean (Glycine max L., var. Pella 86, SOY); test: Pre-emerge greenhouse test, crop damage rating; conditions: 14 days after application, rating scale 0-100
Outline: as §2

[6] = tested on: redroot pigweed (Amaranthus retroflexus, AMARE); test: Post-emerge greenhouse herbicide test, phytotoxicity rating; conditions: 14 days after application
Outline: as §1

[7] = tested on: lambsquarters (Chenopodium album, CHEAL); test: as above; conditions: 14 days after application
Outline: as §1

[8] = tested on: green foxtail (Setaria viridis, SETVI); test: as above; conditions: 14 days after application
Outline: as §1

[9] = tested on: large crabgrass (Digitaria sanguinalis, DIGSA); test: as above; conditions: 14 days after application
Outline: as §1

[10] = tested on: barnyardgrass (Echinochloa crusgalli, ECHCG); test: as above; conditions: 14 days after application
Outline: as §1

[11] = tested on: ivyleaf morningglory (Ipomoea hederacea, IPOHE); test: as above; conditions: 14 days after application
Outline: as §1

[12] = tested on: sicklepod (Cassia obtusifolia, CASOB); test: as above; conditions: 14 days after application
Outline: as §1

[13] = tested on: Johnsongrass (Sorghum halepense, SORHA); test: as above; conditions: 14 days after application
Outline: as §1

[14] = tested on: velvetleaf (Abutilon theophrasti, ABUTH); test: as above; conditions: 14 days after application
Outline: as §1

[15] = tested on: soybean (Glycine max L., var. Pella 86, SOY); test: Post-emerge greenhouse test, crop damage rating; conditions: 14 days after application
Outline: as §1

[16] = tested on: redroot pigweed (Amaranthus retroflexus, AMARE); test: Pre-emerge greenhouse herbicide test, phytotoxicity rating; conditions: 14 days after application, rating scale 0-100
Outline: as §2

[17] = tested on: lambsquarters (Chenopodium album, CHEAL); test: as above; conditions: 14 days after application, rating scale 0-100
Outline: as §2

[18] = tested on: green foxtail (Setaria viridis, SETVI); test: as above; conditions: 14 days after application, rating scale 0-100
Outline: as §2

[19] = tested on: large crabgrass (Digitaria sanguinalis, DIGSA); test: as above; conditions: 14 days after application, rating scale 0-100
Outline: as §2

[20] = tested on: barnyardgrass (Echinochloa crusgalli, ECHCG); test: as above; conditions: 14 days after application, rating scale 0-100
Outline: as §2

[21] = tested on: ivyleaf morningglory (Ipomoea hederacea, IPOHE); test: as above; conditions: 14 days after application, rating scale 0-100
Outline: as §2

[22] = tested on: common ragweed (Ambrosia artemisiifolia L., AMBEL); test: as above; conditions: 14 days after application, rating scale 0-100
Outline: as §2

[23] = tested on: sicklepod (Cassia obtusifolia, CASOB); test: as above; conditions: 14 days after application, rating scale 0-100
Outline: as §2

[24] = tested on: Johnsongrass (Sorghum halepense, SORHA); test: as above; conditions: 14 days after application, rating scale 0-100
Outline: as §2

[25] = tested on: velvetleaf (Abutilon theophrasti, ABUTH); test: as above; conditions: 14 days after application, rating scale 0-100
Outline: as §2

[26] = tested on: common ragweed (Ambrosia artemisiifolia L., AMBEL); test: Post-emerge greenhouse herbicide test, phytotoxicity rating; conditions: 14 days after application
Outline: as §1

## Cn1nc(-c2cc(Oc3ncccn3)c(Cl)cc2F)c(Cl)c1C(F)(F)F [Compound 1-7]
[1]; 63 g al/ha
  CORN crop damage rating (0-100): 90
[1]; 500 g al/ha
  CORN crop damage rating (0-100): 70
[2]; 63 g al/ha
  RICE crop damage rating (0-100): 100
[2]; 500 g al/ha
  RICE crop damage rating (0-100): 80
[3]; 125 g ai/ha
  crop damage rating CORN: 40
[3]; 500 g ai/ha
  crop damage rating CORN: 70
[4]; 125 g ai/ha
  crop damage rating RICE: 70
[4]; 500 g ai/ha
  crop damage rating RICE: 90
[5]; 125 g ai/ha
  crop damage rating SOY: 0
[5]; 500 g ai/ha
  crop damage rating SOY: 0
[6]; 63 g al/ha
  AMARE phytotoxicity rating (0-100): 100
[6]; 500 g al/ha
  AMARE phytotoxicity rating (0-100): 100
[7]; 63 g al/ha
  CHEAL phytotoxicity rating (0-100): 100
[7]; 500 g al/ha
  CHEAL phytotoxicity rating (0-100): 100
[8]; 63 g al/ha
  SETVI phytotoxicity rating (0-100): 100
[8]; 500 g al/ha
  SETVI phytotoxicity rating (0-100): 100
[9]; 63 g al/ha
  DIGSA phytotoxicity rating (0-100): 90
[9]; 500 g al/ha
  DIGSA phytotoxicity rating (0-100): 100
[10]; 63 g al/ha
  ECHCG phytotoxicity rating (0-100): 100
[10]; 500 g al/ha
  ECHCG phytotoxicity rating (0-100): 100
[11]; 63 g al/ha
  IPOHE phytotoxicity rating (0-100): 100
[11]; 500 g al/ha
  IPOHE phytotoxicity rating (0-100): 100
[12]; 500 g al/ha
  CASOB phytotoxicity rating (0-100): 100
[13]; 63 g al/ha
  SORHA phytotoxicity rating (0-100): 90
[13]; 500 g al/ha
  SORHA phytotoxicity rating (0-100): 100
[14]; 63 g al/ha
  ABUTH phytotoxicity rating (0-100): 100
[14]; 500 g al/ha
  ABUTH phytotoxicity rating (0-100): 100
[15]; 63 g al/ha
  SOY crop damage rating (0-100): 100
[15]; 500 g al/ha
  SOY crop damage rating (0-100): 100
[16]; 125 g ai/ha
  phytotoxicity rating AMARE: 100
[16]; 500 g ai/ha
  phytotoxicity rating AMARE: 100
[17]; 125 g ai/ha
  phytotoxicity rating CHEAL: 100
[17]; 500 g ai/ha
  phytotoxicity rating CHEAL: 100
[18]; 125 g ai/ha
  phytotoxicity rating SETVI: 100
[18]; 500 g ai/ha
  phytotoxicity rating SETVI: 100
[19]; 125 g ai/ha
  phytotoxicity rating DIGSA: 100
[19]; 500 g ai/ha
  phytotoxicity rating DIGSA: 100
[20]; 125 g ai/ha
  phytotoxicity rating ECHCG: 100
[20]; 500 g ai/ha
  phytotoxicity rating ECHCG: 100
[21]; 125 g ai/ha
  phytotoxicity rating IPOHE: 40
[21]; 500 g ai/ha
  phytotoxicity rating IPOHE: 70
[22]; 125 g ai/ha
  phytotoxicity rating AMBEL: 100
[22]; 500 g ai/ha
  phytotoxicity rating AMBEL: 100
[23]; 125 g ai/ha
  phytotoxicity rating CASOB: 95
[23]; 500 g ai/ha
  phytotoxicity rating CASOB: 90
[24]; 125 g ai/ha
  phytotoxicity rating SORHA: 100
[24]; 500 g ai/ha
  phytotoxicity rating SORHA: 100
[25]; 125 g ai/ha
  phytotoxicity rating ABUTH: 90
[25]; 500 g ai/ha
  phytotoxicity rating ABUTH: 99
[26]; 63 g al/ha
  AMBEL phytotoxicity rating (0-100): 95
[26]; 500 g al/ha
  AMBEL phytotoxicity rating (0-100): 100

## Cn1c(C(F)(F)F)nc(-c2cc(Oc3ncccc3[N+](=O)[O-])c(Cl)cc2F)c1Cl [Compound 2-1]
[1]; 63 g al/ha
  CORN crop damage rating (0-100): 15
[1]; 500 g al/ha
  CORN crop damage rating (0-100): 20
[2]; 63 g al/ha
  RICE crop damage rating (0-100): 0
[2]; 500 g al/ha
  RICE crop damage rating (0-100): 20
[3]; 125 g ai/ha
  crop damage rating CORN: 0
[3]; 500 g ai/ha
  crop damage rating CORN: 0
[4]; 125 g ai/ha
  crop damage rating RICE: 0
[4]; 500 g ai/ha
  crop damage rating RICE: 0
[5]; 125 g ai/ha
  crop damage rating SOY: 0
[5]; 500 g ai/ha
  crop damage rating SOY: 70
[6]; 63 g al/ha
  AMARE phytotoxicity rating (0-100): 90
[6]; 500 g al/ha
  AMARE phytotoxicity rating (0-100): 100
[7]; 63 g al/ha
  CHEAL phytotoxicity rating (0-100): 80
[7]; 500 g al/ha
  CHEAL phytotoxicity rating (0-100): 99
[8]; 63 g al/ha
  SETVI phytotoxicity rating (0-100): 30
[8]; 500 g al/ha
  SETVI phytotoxicity rating (0-100): 65
[9]; 63 g al/ha
  DIGSA phytotoxicity rating (0-100): 0
[9]; 500 g al/ha
  DIGSA phytotoxicity rating (0-100): 20
[10]; 63 g al/ha
  ECHCG phytotoxicity rating (0-100): 0
[10]; 500 g al/ha
  ECHCG phytotoxicity rating (0-100): 30
[11]; 63 g al/ha
  IPOHE phytotoxicity rating (0-100): 60
[11]; 500 g al/ha
  IPOHE phytotoxicity rating (0-100): 65
[12]; 63 g al/ha
  CASOB phytotoxicity rating (0-100): 0
[12]; 500 g al/ha
  CASOB phytotoxicity rating (0-100): 30
[13]; 63 g al/ha
  SORHA phytotoxicity rating (0-100): 0
[13]; 500 g al/ha
  SORHA phytotoxicity rating (0-100): 10
[14]; 63 g al/ha
  ABUTH phytotoxicity rating (0-100): 40
[14]; 500 g al/ha
  ABUTH phytotoxicity rating (0-100): 85
[15]; 63 g al/ha
  SOY crop damage rating (0-100): 50
[15]; 500 g al/ha
  SOY crop damage rating (0-100): 75
[16]; 125 g ai/ha
  phytotoxicity rating AMARE: 100
[16]; 500 g ai/ha
  phytotoxicity rating AMARE: 100
[17]; 125 g ai/ha
  phytotoxicity rating CHEAL: 60
[17]; 500 g ai/ha
  phytotoxicity rating CHEAL: 100
[18]; 125 g ai/ha
  phytotoxicity rating SETVI: 90
[18]; 500 g ai/ha
  phytotoxicity rating SETVI: 99
[19]; 125 g ai/ha
  phytotoxicity rating DIGSA: 0
[19]; 500 g ai/ha
  phytotoxicity rating DIGSA: 70
[20]; 125 g ai/ha
  phytotoxicity rating ECHCG: 0
[20]; 500 g ai/ha
  phytotoxicity rating ECHCG: 20
[21]; 125 g ai/ha
  phytotoxicity rating IPOHE: 10
[21]; 500 g ai/ha
  phytotoxicity rating IPOHE: 100
[22]; 125 g ai/ha
  phytotoxicity rating AMBEL: 0
[22]; 500 g ai/ha
  phytotoxicity rating AMBEL: 50
[23]; 125 g ai/ha
  phytotoxicity rating CASOB: 0
[23]; 500 g ai/ha
  phytotoxicity rating CASOB: 30
[24]; 125 g ai/ha
  phytotoxicity rating SORHA: 0
[24]; 500 g ai/ha
  phytotoxicity rating SORHA: 30
[25]; 125 g ai/ha
  phytotoxicity rating ABUTH: 0
[25]; 500 g ai/ha
  phytotoxicity rating ABUTH: 50
[26]; 63 g al/ha
  AMBEL phytotoxicity rating (0-100): 10
[26]; 500 g al/ha
  AMBEL phytotoxicity rating (0-100): 40
